Peptide text beside a SMILES is read from it.
Tests used:
Test in all cases: ITC binding
KDM7C Dual - ZB = KDM7C Dual - ZB (Homo sapiens, UniProt O75151)
Method: (§1) Figure S10. ITC results: Tabulated values from 1:1 binding model and conditions
(§2) ITC buffer = 50 mM HEPES, 100 mM NaCl, pH 7.4, 0.2 µm filtered), at 25 °C. Dual = PHD+JmjC. HisTrx
(§3) = His 6+thioredoxin tag, GST = glutathione S -transferase tag, ZB = Z -basic tag. Syringe contained
(§4) peptide solution in buffer. Cell contained protein solution in buffer.
(§5) (1 picture or pasted object on this page, not shown here)

KDM7B Dual = molecular target: T1, KDM7B Dual (Homo sapiens, UniProt Q9UPP1)
T1 construct: Dual = PHD+JmjC; made in house
Method: as §1, §2, §3, §4, §5

KDM7A Dual = KDM7A Dual (Homo sapiens, UniProt Q6ZMT4)
Method: as §1, §2, §3, §4, §5

KDM7C PHD = molecular target: T2, KDM7C PHD (Homo sapiens, UniProt O75151); settings: for Kd: 1:1 binding model
T2 construct: KDM7C 1-67; made in house
T2 sequence (O75151 1-67): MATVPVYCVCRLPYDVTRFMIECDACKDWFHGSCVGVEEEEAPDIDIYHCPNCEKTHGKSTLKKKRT
Method: as §1, §2, §3, §4, §5

[1] = 50 mM HEPES, 100 mM NaCl, pH 7.4, 25 °C, 1:1 binding model

KDM7A Dual, sequence (Q6ZMT4 38-386 limits assumed): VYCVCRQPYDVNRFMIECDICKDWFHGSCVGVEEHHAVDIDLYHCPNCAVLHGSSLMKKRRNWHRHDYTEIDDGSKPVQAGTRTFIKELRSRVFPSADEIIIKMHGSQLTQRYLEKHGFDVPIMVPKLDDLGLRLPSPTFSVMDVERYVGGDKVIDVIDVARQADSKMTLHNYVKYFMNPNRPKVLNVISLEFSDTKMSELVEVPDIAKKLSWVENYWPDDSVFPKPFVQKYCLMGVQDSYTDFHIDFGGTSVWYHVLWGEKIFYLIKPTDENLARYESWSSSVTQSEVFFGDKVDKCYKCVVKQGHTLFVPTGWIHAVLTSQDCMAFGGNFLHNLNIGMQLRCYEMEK
T1 sequence (Q9UPP1 37-483 limits assumed): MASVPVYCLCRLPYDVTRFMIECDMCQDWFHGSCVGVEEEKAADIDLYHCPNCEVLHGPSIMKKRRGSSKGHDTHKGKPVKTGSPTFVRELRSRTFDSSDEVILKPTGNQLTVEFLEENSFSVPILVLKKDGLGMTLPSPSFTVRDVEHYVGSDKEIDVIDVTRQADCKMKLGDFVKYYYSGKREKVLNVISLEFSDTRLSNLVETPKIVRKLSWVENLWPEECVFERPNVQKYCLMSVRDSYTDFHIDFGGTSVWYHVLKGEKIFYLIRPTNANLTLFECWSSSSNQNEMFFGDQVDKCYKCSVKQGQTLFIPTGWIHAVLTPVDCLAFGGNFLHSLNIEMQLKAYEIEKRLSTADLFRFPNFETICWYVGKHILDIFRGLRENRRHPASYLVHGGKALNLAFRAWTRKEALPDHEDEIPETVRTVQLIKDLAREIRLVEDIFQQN
KDM7C Dual - ZB, sequence (O75151 1-353 limits assumed): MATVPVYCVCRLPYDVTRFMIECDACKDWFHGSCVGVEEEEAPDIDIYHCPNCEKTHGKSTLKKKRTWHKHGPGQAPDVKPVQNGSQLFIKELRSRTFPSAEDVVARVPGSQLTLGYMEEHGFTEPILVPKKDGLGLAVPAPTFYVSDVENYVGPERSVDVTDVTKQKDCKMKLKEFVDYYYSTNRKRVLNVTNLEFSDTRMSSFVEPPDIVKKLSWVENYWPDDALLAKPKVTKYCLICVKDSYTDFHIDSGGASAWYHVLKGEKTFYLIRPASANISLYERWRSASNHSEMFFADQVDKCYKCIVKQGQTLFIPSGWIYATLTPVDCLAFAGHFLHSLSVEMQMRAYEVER

SMILES: CC(C)C[C@@H]1NC(=O)[C@H](Cc2ccc(O)cc2)NC(=O)[C@H](Cc2ccc(O)cc2)NC(=O)CSC[C@@H](C(N)=O)NC(=O)[C@H]([C@@H](C)O)NC(=O)[C@H](CCCNC(=N)N)NC(=O)[C@H](Cc2ccccc2)NC(=O)[C@H](C(C)C)NC(=O)[C@H](CO)NC(=O)[C@@H]2CCCN2C(=O)[C@H](Cc2ccc(O)cc2)NC(=O)[C@@H]2CCCN2C(=O)[C@H](Cc2c[nH]cn2)NC(=O)[C@H]([C@@H](C)O)NC1=O [OC9] (HELM PEPTIDE1{[O=C(C[*:3])[*:2]].Y.Y.L.T.H.P.Y.P.S.V.F.R.T.C.[am]}$PEPTIDE1,PEPTIDE1,1:R3-15:R3$$$V2.0)
- ITC ΔH, KDM7C Dual - ZB (KDM7C Dual - ZB; 25 °C): -65.7 ± 3.1 kJ mol -1
- Kd (KDM7C Dual - ZB; read-out: ITC pKD, KDM7C Dual - ZB (converted)): 10 nM
- ITC N, KDM7C Dual - ZB (KDM7C Dual - ZB; stoichiometry): 1.19 ± 0.01
- Kd (KDM7B Dual; [1]): 10.5 nM
- ITC ΔH, KDM7B Dual (KDM7B Dual; 25 °C): -46.0 ± 1.5 kJ mol -1
- ITC N, KDM7B Dual (KDM7B Dual; stoichiometry): 0.95 ± 0.02
- Kd (KDM7A Dual; [1]): 34.3 nM
- ITC ΔH, KDM7A Dual (KDM7A Dual; 25 °C): -56.9 ± 4.3 kJ mol -1
- ITC N, KDM7A Dual (KDM7A Dual; stoichiometry): 0.92 ± 0.03
- Kd (KDM7C PHD; 50 mM HEPES, 100 mM NaCl, pH 7.4, 25 °C): 9.56 nM
- Kd (KDM7C PHD): 10 ± 4 nM
- ITC ΔH, KDM7C PHD (KDM7C PHD; 25 °C): -62.0 ± 1.0 kJ mol -1
- ITC N, KDM7C PHD (KDM7C PHD; stoichiometry): 1.09 ± 0.01
